# Where “and” joins values, the source holds several entries; their conditions need not be identical. Equal entries are not always repeated. Where two headings read alike, the source gives them in different places.
# What was measured:
# Format in all cases: cell-based
# parental 293T cells = experiment: caspase 3/7 glo; conditions: for mean_norm (caspase 3/7 glo): Cell_Line WT, normalized to Concentration 0; for raw caspase 3/7 glo signal, single replicate: WT
# Experimental: (§1) Cells were plated in 384-well plates (typically 1,500 cells per well) with varying concentrations of compounds with a total volume of 50 μl per well. After 1 day, caspase 3/7 glo reagent (Promega) was added following the manufacturer’s protocol and read out using an EnVision 2105 multimode plate reader.
# [1] = tested on: Halo–p53-Y220C ΔTAD–mCherry 293T cells; experiment: caspase 3/7 glo; conditions: for mean_norm (caspase 3/7 glo): Cell_Line Y220C, normalized to Concentration 0; for raw caspase 3/7 glo signal, single replicate: Y220C
# Experimental: as §1
# [2] = tested on: Halo–p53-Y220C ΔTAD–mCherry 293T cells; experiment: cell-cycle analysis (DNA content, DAPI flow cytometry); parameters: 4N / 8N / Right_of_Gate1 (replicates) / Right_of_Gate2 (replicates) / 2N: unit not given here; conditions: 1 day; for 2N / 4N / 8N / Right_of_Gate1 (replicates) / Right_of_Gate2 (replicates): Y220C
# Experimental: Cells were split into a 10-cm dish at low confluency (20%) and grown overnight. Cells were synchronized using overnight treatment with palbociclib (150 nM), washed and split into a six-well plate for treatment with compound for 24 h. Cells were harvested by trypsinization, washed twice with cold 1× PBS, fixed by dropwise addition of ice-cold 70% ethanol while vortexing and incubated overnight (4 °C). Fixed samples were centrifuged at 1,000g for 5 min and 70% ethanol was removed. Cells were washed twice with 1× PBS + 1% BSA before DNA labeling with 1 µg ml^−1 DAPI for 10 min at room temperature, before being analyzed for DNA content by flow cytometry (Beckman CytoFLEX LX).
# [3] = CellTiter-Glo cell viability; conditions: human, BxPC-3 cells, BXPC3, 4 day, read-out: mean_norm (normalized viability)
# Experimental: Cells were plated in 384-well plates (typically 1,500 cells per well) with varying concentrations of compounds, with a total volume of 50 μl per well. CTG reagent was added (25 μl) to the solutions, mixed and read out using an EnVision 2105 multimode plate reader.
# [4] = tested on: Halo–p53-Y220C ΔTAD–mCherry 293T cells versus parental 293T cells; experiment: flow-cytometry growth competition; conditions: for EC50: Homo sapiens, HEK-293T; for normalized_mCherry_percentage: Y220C, day 8, normalized to DMSO
# Experimental: (§2) Cells with and without a fluorescent marker (for example, Halo–p53–mCherry) were mixed and the resulting solution was plated in six-well plates or 10-cm dishes at low density; compound was added at varying concentrations. After reaching confluence, cells were passaged and retreated with compound if needed. Otherwise, cells were trypsinized, washed and resuspended in complete growth medium in 96-well plates or tubes for flow cytometry. Untreated cell mixtures were used to establish gates separating the fluorophore^+/− populations. Analysis was conducted on a CytoFLEX LX flow cytometer.
# [5] = tested on: MFE319 cells stably expressing sgTP53–Cas9–EGFP versus parental MFE319 cells; experiment: flow-cytometry growth competition
# Experimental: as §2
# [6] = tested on: Calu-1 cells stably expressing Halo–p53-R273H (FL)–mCherry versus parental Calu-1 cells; experiment: flow-cytometry growth competition; conditions: 7 days
# Experimental: as §2
# [7] = Conc 0.38 (unit not given; p53-01 in μM, BI2536 in nM)
# [8] = Conc 0.75 (unit not given; p53-01 in μM, BI2536 in nM)
# [9] = Conc 1.50 (unit not given; p53-01 in μM, BI2536 in nM)
compound,measurement,setting,value
"CC[C@@H]1C(=O)N(C)c2cnc(Nc3ccc(C(=O)NCCOCCOCCOCCOCCC(=O)N4CCC(Nc5cccc6c5cc(C#CCNc5ccc(S(C)(=O)=O)cc5OC)n6CC(F)(F)F)CC4)cc3OC)nc2N1C1CCCC1 [p53-01, PMV6-PEG4-BI2536]",mean_norm (caspase 3/7 glo),parental 293T cells; Concentration 19.5312,1.032
same,mean_norm (caspase 3/7 glo),parental 293T cells; Concentration 39.0625,0.9788
same,mean_norm (caspase 3/7 glo),parental 293T cells; Concentration 78.125,1.009
same,mean_norm (caspase 3/7 glo),parental 293T cells; Concentration 156.25,0.9403
same,mean_norm (caspase 3/7 glo),parental 293T cells; Concentration 312.5,0.9336
same,mean_norm (caspase 3/7 glo),parental 293T cells; Concentration 625,0.8748
same,mean_norm (caspase 3/7 glo),parental 293T cells; Concentration 1250,1.007
same,mean_norm (caspase 3/7 glo),parental 293T cells; Concentration 2500,1.185
same,mean_norm (caspase 3/7 glo),parental 293T cells; Concentration 5000,1.4986
same,mean_norm (caspase 3/7 glo),parental 293T cells; Concentration 10000,1.763
same,"raw caspase 3/7 glo signal, single replicate",parental 293T cells; Concentration 19.5312,133494 and 117337 and 138819 and 114789
same,"raw caspase 3/7 glo signal, single replicate",parental 293T cells; Concentration 39.0625,123804 and 109630 and 139391 and 105438
same,"raw caspase 3/7 glo signal, single replicate",parental 293T cells; Concentration 78.125,123731 and 127401 and 120215 and 121439
same,"raw caspase 3/7 glo signal, single replicate",parental 293T cells; Concentration 156.25,127240 and 99863 and 130913 and 101408
same,"raw caspase 3/7 glo signal, single replicate",parental 293T cells; Concentration 312.5,120672 and 107314 and 116046 and 112110
same,"raw caspase 3/7 glo signal, single replicate",parental 293T cells; Concentration 625,120568 and 89735 and 125147 and 91991
same,"raw caspase 3/7 glo signal, single replicate",parental 293T cells; Concentration 1250,122108 and 116864 and 133954 and 118859
same,"raw caspase 3/7 glo signal, single replicate",parental 293T cells; Concentration 2500,139477 and 137713 and 153198 and 148518
same,"raw caspase 3/7 glo signal, single replicate",parental 293T cells; Concentration 5000,207130 and 170945 and 175970 and 178176
same,"raw caspase 3/7 glo signal, single replicate",parental 293T cells; Concentration 10000,233886 and 204323 and 214988 and 207998
same,mean_norm (caspase 3/7 glo),[1]; Concentration 19.5312,1.044
same,mean_norm (caspase 3/7 glo),[1]; Concentration 39.0625,0.9705
same,mean_norm (caspase 3/7 glo),[1]; Concentration 78.125,0.9927
same,mean_norm (caspase 3/7 glo),[1]; Concentration 156.25,0.9639
same,mean_norm (caspase 3/7 glo),[1]; Concentration 312.5,0.9272
same,mean_norm (caspase 3/7 glo),[1]; Concentration 625,0.8899
same,mean_norm (caspase 3/7 glo),[1]; Concentration 1250,1.234
same,mean_norm (caspase 3/7 glo),[1]; Concentration 2500,2.011
same,mean_norm (caspase 3/7 glo),[1]; Concentration 5000,2.316
same,mean_norm (caspase 3/7 glo),[1]; Concentration 10000,2.222
same,"raw caspase 3/7 glo signal, single replicate",[1]; Concentration 19.5312,122690 and 136337 and 118028 and 144163
same,"raw caspase 3/7 glo signal, single replicate",[1]; Concentration 39.0625,117294 and 127747 and 106194 and 133419
same,"raw caspase 3/7 glo signal, single replicate",[1]; Concentration 78.125,123437 and 120512 and 118467 and 133301
same,"raw caspase 3/7 glo signal, single replicate",[1]; Concentration 156.25,105036 and 125984 and 107588 and 142722
same,"raw caspase 3/7 glo signal, single replicate",[1]; Concentration 312.5,120420 and 114761 and 112118 and 115705
same,"raw caspase 3/7 glo signal, single replicate",[1]; Concentration 625,92711 and 123269 and 91753 and 136660
same,"raw caspase 3/7 glo signal, single replicate",[1]; Concentration 1250,148294 and 147349 and 143892 and 176603
same,"raw caspase 3/7 glo signal, single replicate",[1]; Concentration 2500,271302 and 236256 and 229038 and 267460
same,"raw caspase 3/7 glo signal, single replicate",[1]; Concentration 5000,327582 and 262469 and 277595 and 289089
same,"raw caspase 3/7 glo signal, single replicate",[1]; Concentration 10000,286008 and 259961 and 264959 and 298921
same,induction of apoptosis,"[1]; versus parental 293T, caspase 3/7 glo and annexin–PI, 1 day",differentially induced apoptosis
same,DNA content,"[2]; 0.75 μM, synchronized cells",accumulation of Halo–p53-Y220C ΔTAD–mCherry 293T cells with 4 N DNA content
same,cells with genome doubling (8 N DNA content),[2]; 1.5 μM,~ 60%
same,2N,[2]; [7],58.97
same,4N,[2]; [7],39.03
same,8N,[2]; [7],2.00
same,Right_of_Gate1 (replicates),[2]; [7],41.03 and 37.34 and 37.12
same,Right_of_Gate2 (replicates),[2]; [7],2.00 and 2.08 and 2.06
same,2N,[2]; [8],39.09
same,4N,[2]; [8],57.44
same,8N,[2]; [8],3.47
same,Right_of_Gate1 (replicates),[2]; [8],60.91 and 56.52 and 59.94
same,Right_of_Gate2 (replicates),[2]; [8],3.47 and 3.35 and 3.58
same,2N,[2]; [9],1.94
same,4N,[2]; [9],38.53
same,8N,[2]; [9],59.53
same,Right_of_Gate1 (replicates),[2]; [9],98.06 (2×) and 98.33
same,Right_of_Gate2 (replicates),[2]; [9],59.53 and 59.10 and 58.35
same,viability at 4 day,[3]; Concentration 39.0625,96%
same,viability at 4 day,[3]; Concentration 78.125,94.9%
same,viability at 4 day,[3]; Concentration 156.25,99%
same,viability at 4 day,[3]; Concentration 312.5,91%
same,viability at 4 day,[3]; Concentration 10000,44%
same,viability at 4 day,[3]; Concentration 20000,25.6%
same,mCherry_percent,"[4]; 1 uM, 8 days, untreated 39.76",6.93%
same,"Emax, decline in the mCherry^+ fraction",[4]; 8-day competition,21.5 fold
same,EC50,"[4]; 192 h, 8-day competition, read-out: EC50 growth competition",443 nM
same,EC50,"[4]; 240 h, growth competition analyzed on day 10, n = 3, read-out: Competition EC50",850 nM
same,normalized_mCherry_percentage,[4]; 62.5 nM,97.27%
same,normalized_mCherry_percentage,[4]; 125 nM,95.36%
same,normalized_mCherry_percentage,[4]; 250 nM,82.43%
same,normalized_mCherry_percentage,[4]; 500 nM,42.51%
same,normalized_mCherry_percentage,[4]; 1 uM,16.67%
same,normalized_mCherry_percentage,[4]; 2 uM,4.655%
same,selection in growth competition,"[4]; dosed between 250 nM and 2 μM, 8-day",strong selection against p53-Y220C^+ cells
same,"mCherry^+ percentage in competition, replicate","[4]; p53-01 250 nM, untreated 28.89, 29.94, 29.02",3.07 and 3.6 and 3.2
same,decline in mCherry^+ percentage,[4]; p53-01 alone at 250 nM,8.9 fold
same,"merge_avg (growth competition, sheet 4H)",[5]; Concentration (pM) 156250,0.9416
same,"merge_avg (growth competition, sheet 4H)",[5]; Concentration (pM) 312500,0.9268
same,"merge_avg (growth competition, sheet 4H)",[5]; Concentration (pM) 600000,0.9517
same,"merge_avg (growth competition, sheet 4H)",[5]; Concentration (pM) 800000,1.131
same,"merge_avg (growth competition, sheet 4H)",[5]; Concentration (pM) 1000000,1.205
same,"merge_avg (growth competition, sheet 4H)",[5]; Concentration (pM) 1100000,1.344
same,"merge_avg (growth competition, sheet 4H)",[5]; Concentration (pM) 1250000,1.624
same,enrichment of EGFP^+ (TP53-knockout) population,"[5]; day 9, p53-01 at doses between 800 nM and 1.25 μM",significantly enrich an EGFP^+ population
same,activity in competition,[6],did not observe any activity

# Source: article PMC13128454, “Mutant p53 protein accumulation is selectively targetable by proximity-inducing drugs” (Nature Chemical Biology, 2025)
